Literature values, collected in patent publication US20140037570A1, “NBPT solution for preparing urease inhibited urea fertilizers prepared from N-alkyl; N, N-alkyl; and N-alkyl-N-alkoxy amino alcohols” (Whitehurst Associates Inc., priority 2012, published 2014).

Settings: background statement on NBPT

With `CCCCNP(N)(N)=S` [NBPT, N-(n-butyl)thiophosphoric triamide] as the compound, how does the stability read?
The stability was “thermally unstable”.
